Tests used:
BpSDR = biological target: T1, BpSDR (Paraburkholderia phymatum, UniProt B2JGP2); test: X-ray crystal structure, […] Å; settings: co-crystallised with 4 mM NAD, pH 4.5-4.6, 14 °C; cofactor-binding domain; acetate from crystallisation solution in substrate site
T1 construct: gene Bphy_1038; residues 1-289, noncleavable N-terminal His6 tag (MAHHHHHHM-ORF), vector pBG1861, E. coli BL21(DE3); SEC monomer or dimer, prototypical SDR dimers by crystal symmetry

[1] = biological target: the molecule itself; test: crystal structure; space group C222(1), 1.80 A, three monomers in the asymmetric unit, with NAD and acetate; dimers generated by crystallographic symmetry

| Molecule | X-ray crystal structure, 1.80 Å (BpSDR) | binding result [1] |
| --- | --- | --- |
| NC(=O)c1ccc[n+]([C@@H]2O[C@H](COP(=O)(O)OP(=O)(O)OC[C@H]3O[C@@H](n4cnc5c(N)ncnc54)[C@H](O)[C@@H]3O)[C@@H](O)[C@H]2O)c1 [NAD] | each monomer having an acetate molecule in the substrate-binding domain and a NAD molecule | – |
| short-chain dehydrogenase/reductase from Burkholderia phymatum (enzyme, short-chain dehydrogenase/reductase, Burkholderia phymatum STM815, UniProt B2JGP2, amino acids 1-289; Crystallised with 4 mM NAD; each monomer holds NAD and an acetate; 278 residues of each monomer are seen in the structure; also called BpSDR; SDR from B. phymatum; source: E. coli BL21(DE3), purified (IMAC, SEC); not shown: His6 (MAHHHHHH, noncleavable hexahistidine fusion tag from the vector …)) MFEFDGKVAVITGAGSGFGRAFAEKGASLGMKLVLADVDEGALARTVDTLRAAGAEVIGVRTDVSNGAQVQALADAALEAFGKVHLLFNNAGVGAGGFLWESSANDWAWVFGVNVMGVAHGVRVFAPIMLGQNEAAHIVNTASVAGLLSPPSMGIYNASKHAVVSLTETLYHDLRNAGGEVGCSLLCPAFVPTGIADAERVRPEALRNEAQPTRSQLAADRQLQRAVRSGKLGATDVATLTFEAIAERRFYILTHPAILATVRLRHEDIELQRNPTDPLSLKPEVKEAR | – | binds |

Source: publication PMC8805215, “Crystal structure of a short-chain dehydrogenase/reductase from Burkholderia phymatum in complex with NAD” (Acta Crystallographica. Section F, Structural Biology …, 2022)
